Measured values taken from US20250381179A1, “CHROMAN-BASED COMPOUNDS FOR TREATING CANCER” (priority 2024, published 2025).
Read-outs that look alike come from different tables or passages of the source.

Assays:
[1] = tested on: MCF7 cells; experiment: MCF7 cell growth inhibition (luminescence-based proliferation assay, CellTiter-Glo)
Experimental: MCF7 cells were obtained from American Type Culture Collection (ATCC). For cell growth assay, MCF7 cells were seeded in 96-well plates at 2000 cells/well in 90 μL of DMEM medium containing 10% fetal bovine serum, and then incubated at 37° C. with 5% CO2 in air overnight. The following day, compound (1-g) and compound (1-h) were administered to the cells by using 1000× compound stock solution prepared in DMSO at concentrations of 3, 1, 0.33, 0.11, 0.037, 0.012, 0.0041, 0.0013, and 0.00046 mM. 1000x compound stock solution was first diluted in culturing medium to 10×, then 10 μL compound medium was added to each well in the cell plates. After administration of compound (1-g) and compound (1-h), the cells were then incubated at 37° C. for 6 days. Upon completion, the plates were equilibrated at room temperature for approximately 10 minutes. 100 μL of CellTiter-Glo® Reagent (Promega) was added to each well. The plates were then incubated at room temperature for 10 minutes and luminescence was recorded by EnSpire plate reader (PerkinElmer).

[2] = target: CYP2D6 (Homo sapiens, UniProt P10635); experiment: CYP2D6 direct inhibition; assay type: in vitro ADME; conditions: highest concentration evaluated (10 μM)
[3] = Phase 1 study: plasma pharmacokinetics in patients; assay type: in vivo, human; conditions: for conversion to compound (1-h) in patients: plasma PK after oral dosing
Experimental: All patients received compound (1-g) orally. The time of day for administration of compound (1-g) was consistent. Compound (1-g) was taken whole with liquid(s) and with food in the morning. The patient avoided taking other medications at the same time as compound (1-g). When possible, the patient took other medications in the evening or separated by a minimum of 4 hours following compound (1-g) dosing. On scheduled PK collection days (Cycle 1 Day 1, Cycle 1 Day 15, and Day 1 of Cycles 2, 3, 4, and 6) patients were instructed to wait until they arrive at the study center to take their study drug when told. If a patient missed a dose of compound (1-g), the patient was required to take the dose as soon as possible, but not less than 12 hours before the next dose is due. If vomiting occurred after taking the study treatment, the patient was instructed not to retake the dose and record the dose recorded as taken in the dosing diary, noting that the patient vomited and marking the time of vomiting. Patients were instructed to take the next scheduled dose of compound (1-g).
The plasma PK parameters (including AUC(0-∞), AUC(0-τ), Cmax, tmax, and T1/2) of compound (1-g) following oral administration was assessed by analysis of blood samples. During treatment, PK blood samples were taken at approximately the following time points: • Cycle 1 Day 1, and Day 15: pre-dose; at 1, 2, and 4-hour post-dose (±5 min); 6 and 8-hour post-dose (±10 min); and 24 hours post-dose (+1 hour); • Cycle 2, 3, 4, and 6 Day 1: pre-dose only.
Plasma concentrations of compound (1-g) were used to calculate the PK parameters. These parameters were listed by individual patient and summarized by descriptive statistics (means, medians, ranges, standard deviations, and coefficients of variation as appropriate) by cohort.
Compound (1-g) was administered orally to patients once a day at 100, 200, 300 mg, 400 mg, and 600 mg doses.

[4] = Exposure after repeat oral administration in GLP toxicology study, dogs; assay type: in vivo
Text: There were no marked sex-based differences in exposure, but in the 28-day toxicity study of compound (1-g) in rats, exposures were 1.4 to 1.9-fold higher in female rats compared to males.

[5] = tested on: CYP2B6; experiment: CYP2B6 induction in vitro (activity, mRNA); assay type: in vitro ADME
[6] = tested on: CYP3A
[7] = rat, in vivo, po
[8] = in vivo; conditions: male, rat, po
[9] = target: human cytochrome P450 CYP3A5 (Homo sapiens, UniProt P20815); experiment: In vitro metabolism by CYP3A5; assay type: in vitro ADME
human cytochrome P450 CYP3A5, sequence (P20815 whole entry): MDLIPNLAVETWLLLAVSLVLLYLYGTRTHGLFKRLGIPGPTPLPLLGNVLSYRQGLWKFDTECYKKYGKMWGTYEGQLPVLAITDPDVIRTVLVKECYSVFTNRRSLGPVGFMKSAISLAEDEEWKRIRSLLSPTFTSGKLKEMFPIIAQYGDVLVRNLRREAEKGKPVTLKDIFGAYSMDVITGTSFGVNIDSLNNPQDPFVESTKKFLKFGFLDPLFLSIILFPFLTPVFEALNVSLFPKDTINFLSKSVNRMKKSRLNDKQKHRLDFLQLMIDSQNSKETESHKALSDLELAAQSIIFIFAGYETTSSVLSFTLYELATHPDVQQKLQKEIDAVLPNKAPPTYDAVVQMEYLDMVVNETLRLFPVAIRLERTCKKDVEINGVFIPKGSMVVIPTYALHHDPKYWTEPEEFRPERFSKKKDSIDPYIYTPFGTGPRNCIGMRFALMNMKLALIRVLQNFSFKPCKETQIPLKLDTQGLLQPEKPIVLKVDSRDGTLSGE

CYP2D6, sequence (P10635 whole entry): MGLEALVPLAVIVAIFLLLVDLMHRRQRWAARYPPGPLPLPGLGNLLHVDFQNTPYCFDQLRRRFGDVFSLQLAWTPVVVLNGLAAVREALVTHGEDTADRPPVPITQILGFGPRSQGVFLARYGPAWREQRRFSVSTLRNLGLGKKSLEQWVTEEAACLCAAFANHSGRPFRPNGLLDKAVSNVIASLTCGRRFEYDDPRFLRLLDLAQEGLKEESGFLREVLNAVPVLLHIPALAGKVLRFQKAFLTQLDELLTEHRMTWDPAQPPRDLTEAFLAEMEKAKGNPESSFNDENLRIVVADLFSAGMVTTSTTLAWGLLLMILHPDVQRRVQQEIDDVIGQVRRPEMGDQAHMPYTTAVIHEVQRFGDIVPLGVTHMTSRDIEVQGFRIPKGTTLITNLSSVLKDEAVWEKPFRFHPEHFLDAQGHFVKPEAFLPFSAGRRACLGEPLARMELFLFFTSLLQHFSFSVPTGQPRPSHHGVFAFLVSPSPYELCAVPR

O=C1CC[C@H](N2Cc3cc(N4CCN(CC5CCN(c6ccc([C@@H]7c8ccc(O)cc8OC[C@@H]7c7ccccc7)cc6F)CC5)CC4)ccc3C2=O)C(=O)N1 [compound (1-g), (S)-3-(5-(4-((1-(2-fluoro-4-((3S,4R)-7-hydroxy-3-phenylchroman-4-yl)phenyl)piperidin-4-yl)methyl)piperazin-1-yl)-1-oxoisoindolin-2-yl)piperidine-2,6-dione]
GI50 ([1]; Homo sapiens, 144 h, MCF7 cells, 6 days, CellTiter-Glo): 6.2 nM | reduced the tumor growth by (FIG. 3A/3B) ([1]; MCF7 cell proliferation assay): about 50% | CYP2D6 direct inhibition [2]: did not directly inhibit | Tmax ([3]; human, plasma, po, 100 mg, patient plasma, oral (1-g) 100 mg QD, C1D1, n = 3, *median value, read-out: Tmax*): 12.7 h | AUC(0-t) ([3]; human, plasma, po, 100 mg, patient plasma, oral (1-g) 100 mg QD, C1D1, n = 3, mean, read-out: AUC0-24 h): 7570 ng·h/mL | Cmax ([3]; human, plasma, po, 100 mg, patient plasma, oral (1-g) 100 mg QD, C1D1, n = 3, mean, read-out: Cmax): 432 ng/mL | half-life ([3]; human, plasma, po, 100 mg, patient plasma, oral (1-g) 100 mg QD, C1D1, n = 3, mean, read-out: T½ (converted)): 20.2 h | AUC(0-t) ([3]; human, plasma, po, 100 mg, patient plasma, oral (1-g) 100 mg QD, C1D15 (steady state), n = 3, mean, read-out: AUC0-24 h): 19500 ng·h/mL | Cmax ([3]; human, plasma, po, 100 mg, patient plasma, oral (1-g) 100 mg QD, C1D15 (steady state), n = 3, mean, read-out: Cmax): 1010 ng/mL | Tmax ([3]; human, plasma, po, 100 mg, patient plasma, oral (1-g) 100 mg QD, C1D15, n = 3, *median value, read-out: Tmax*): 6.67 h | half-life ([3]; human, plasma, po, 100 mg, patient plasma, oral (1-g) 100 mg QD, C1D15, n = 3, mean, read-out: T½ (converted)): 32.1 h | Tmax ([3]; human, plasma, po, 200 mg, patient plasma, oral (1-g) 200 mg QD, C1D1, n = 12, *median value, read-out: Tmax*): 5.5 h | AUC(0-t) ([3]; human, plasma, po, 200 mg, patient plasma, oral (1-g) 200 mg QD, C1D1, n = 12, mean, read-out: AUC0-24 h): 11200 ng·h/mL | Cmax ([3]; human, plasma, po, 200 mg, patient plasma, oral (1-g) 200 mg QD, C1D1, n = 12, mean, read-out: Cmax): 630 ng/mL | half-life ([3]; human, plasma, po, 200 mg, patient plasma, oral (1-g) 200 mg QD, C1D1, n = 12, mean, read-out: T½ (converted)): 38.3 h | AUC(0-t) ([3]; human, plasma, po, 200 mg, patient plasma, oral (1-g) 200 mg QD, C1D15 (steady state), n = 12, mean, read-out: AUC0-24 h): 26000 ng·h/mL | Cmax ([3]; human, plasma, po, 200 mg, patient plasma, oral (1-g) 200 mg QD, C1D15 (steady state), n = 12, mean, read-out: Cmax): 1340 ng/mL | Tmax ([3]; human, plasma, po, 200 mg, patient plasma, oral (1-g) 200 mg QD, C1D15, n = 12, *median value, read-out: Tmax*): 4 h | half-life ([3]; human, plasma, po, 200 mg, patient plasma, oral (1-g) 200 mg QD, C1D15, n = 12, mean, read-out: T½ (converted)): 48.8 h | Tmax ([3]; human, plasma, po, 300 mg, patient plasma, oral (1-g) 300 mg QD, C1D1, n = 10, *median value, read-out: Tmax*): 5.8 h | AUC(0-t) ([3]; human, plasma, po, 300 mg, patient plasma, oral (1-g) 300 mg QD, C1D1, n = 10, mean, read-out: AUC0-24 h): 16600 ng·h/mL | Cmax ([3]; human, plasma, po, 300 mg, patient plasma, oral (1-g) 300 mg QD, C1D1, n = 10, mean, read-out: Cmax): 963 ng/mL | half-life ([3]; human, plasma, po, 300 mg, patient plasma, oral (1-g) 300 mg QD, C1D1, n = 10, mean, read-out: T½ (converted)): 31.2 h | AUC(0-t) ([3]; human, plasma, po, 300 mg, patient plasma, oral (1-g) 300 mg QD, C1D15 (steady state), n = 10, mean, read-out: AUC0-24 h): 41800 ng·h/mL | Cmax ([3]; human, plasma, po, 300 mg, patient plasma, oral (1-g) 300 mg QD, C1D15 (steady state), n = 10, mean, read-out: Cmax): 2190 ng/mL | Tmax ([3]; human, plasma, po, 300 mg, patient plasma, oral (1-g) 300 mg QD, C1D15, n = 10, *median value, read-out: Tmax*): 4.8 h | half-life ([3]; human, plasma, po, 300 mg, patient plasma, oral (1-g) 300 mg QD, C1D15, n = 10, mean, read-out: T½ (converted)): 32.9 h | Tmax ([3]; human, plasma, po, 400 mg, patient plasma, oral (1-g) 400 mg QD, C1D1, n = 6, *median value, read-out: Tmax*): 6 h | AUC(0-t) ([3]; human, plasma, po, 400 mg, patient plasma, oral (1-g) 400 mg QD, C1D1, n = 6, mean, read-out: AUC0-24 h): 18800 ng·h/mL | Cmax ([3]; human, plasma, po, 400 mg, patient plasma, oral (1-g) 400 mg QD, C1D1, n = 6, mean, read-out: Cmax): 1070 ng/mL | half-life ([3]; human, plasma, po, 400 mg, patient plasma, oral (1-g) 400 mg QD, C1D1, n = 6, mean, read-out: T½ (converted)): 30.4 h | Tmax ([3]; human, plasma, po, 400 mg, patient plasma, oral (1-g) 400 mg QD, C1D15, n = 5, *median value, read-out: Tmax*): 4.4 h | AUC(0-t) ([3]; human, plasma, po, 400 mg, patient plasma, oral (1-g) 400 mg QD, C1D15, n = 5, mean, read-out: AUC0-24 h): 45900 ng·h/mL | Cmax ([3]; human, plasma, po, 400 mg, patient plasma, oral (1-g) 400 mg QD, C1D15, n = 5, mean, read-out: Cmax): 2360 ng/mL | half-life ([3]; human, plasma, po, 400 mg, patient plasma, oral (1-g) 400 mg QD, C1D15, n = 5, mean, read-out: T½ (converted)): 44.9 h | Tmax ([3]; human, plasma, po, 600 mg, patient plasma, oral (1-g) 600 mg QD, C1D1, n = 4, *median value, read-out: Tmax*): 4.5 h | AUC(0-t) ([3]; human, plasma, po, 600 mg, patient plasma, oral (1-g) 600 mg QD, C1D1, n = 4, mean, read-out: AUC0-24 h): 26100 ng·h/mL | Cmax ([3]; human, plasma, po, 600 mg, patient plasma, oral (1-g) 600 mg QD, C1D1, n = 4, mean, read-out: Cmax): 1390 ng/mL | half-life ([3]; human, plasma, po, 600 mg, patient plasma, oral (1-g) 600 mg QD, C1D1, n = 4, mean, read-out: T½ (converted)): 40.9 h | Tmax ([3]; human, plasma, po, 600 mg, patient plasma, oral (1-g) 600 mg QD, C1D15, n = 4, *median value, read-out: Tmax*): 6 h | AUC(0-t) ([3]; human, plasma, po, 600 mg, patient plasma, oral (1-g) 600 mg QD, C1D15, n = 4, mean, read-out: AUC0-24 h): 48600 ng·h/mL | Cmax ([3]; human, plasma, po, 600 mg, patient plasma, oral (1-g) 600 mg QD, C1D15, n = 4, mean, read-out: Cmax): 2680 ng/mL | half-life ([3]; human, plasma, po, 600 mg, patient plasma, oral (1-g) 600 mg QD, C1D15, n = 4, mean, read-out: T½ (converted)): 27.6 h | AUC(0-t) ([3]; human, plasma, po, patients, 100-600 mg QD oral, read-out: AUC0-24h, range): 7570 to 48600 ng·h/mL | Cmax ([3]; human, plasma, po, patients, 100-600 mg QD oral, read-out: Cmax, range): 432 to 2680 ng/mL | half-life ([3]; human, plasma, po, patients, 100-600 mg QD oral, read-out: mean effective T1/2 at steady state, range): 20.2 to 48.8 h | Tmax ([3]; human, plasma, po, patients, 100-600 mg QD oral, read-out: median Tmax, range across the dose levels): 4 to 13 h | Cmax ([3]; patient plasma, oral (1-g) 100 mg QD, C1D15 (steady state), n = 3, mean): 1008.67 ng/mL | Cmax ([3]; patient plasma, oral (1-g) 200 mg QD, C1D15 (steady state), n = 12, mean): 1341.75 ng/mL | dose proportionality of pharmacokinetics ([3]; patients, FIGS. 4A, 4C, 4D): dose proportional relationship up to 400 mg but almost plateaued at 400 mg | Cmax and AUC0-24h versus dose ([3]; patients, preliminary results): dose-dependent increases | conversion to compound (1-h) in patients [3]: partially converted to compound (1-h) | conversion to compound (1-h) in patients ([3]; listed as 1-g): partially metabolized to form compound 1-h | accumulation with repeated dosing [4]: No significant accumulation | change of exposure following repeat dosing ([4]; 45 mg/kg/day): decreased in females and slightly decreased in males | dose proportionality of exposure ([4]; 5 to 45 mg/kg/day, repeat administration): slightly less than dose proportional | exposure (AUC0-24h) versus dose ([4]; repeat oral administration): increased in an approximately dose-dependent manner | CYP2B6 induction (activity or mRNA expression) [5]: did not significantly induce activity or mRNA expression | CYP3A time-dependent inhibition [6]: weak time-dependent inhibition | presence in mammary gland tissue, ovaries and uterus [7]: quantifiable in mammary gland tissue | tissue exposure [7]: highest exposures were observed in the large and small intestine with limited exposure to the brain | NOAEL at 28 day [8]: 270 mg/kg/day | metabolism by CYP3A5 [9]: weakly metabolized
